System: 188146-221-R-J1-PDC complex spheroid viability
Test: Anticancer human tumor 188146-221-R-J1-PDC patient-derived colon adenocarcinoma cell line growth inhibition [POLQ]
Conditions: for IC50: curve of first compound; for viability, T/C: stronger effect = lower value
How it was run: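 Three-cell-type spheroids modelling solid tumor plus stroma served as the readout system; POL inhibitors were tested individually and in combination, concentration ranges set by clinical Cmax where known.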

[1] = second compound 0.0316 µM, first compound 0.0316 µM
[2] = second compound 0.0316 µM, first compound 0.1 µM
[3] = second compound 0.0316 µM, first compound 0.316 µM
[4] = second compound 0.0316 µM, first compound 1 µM
[5] = second compound 0.0316 µM, first compound 3.16 µM
[6] = second compound 0.0316 µM, first compound 10 µM
[7] = second compound 0.1 µM, first compound 0.0316 µM
[8] = second compound 0.1 µM, first compound 0.1 µM
[9] = second compound 0.1 µM, first compound 0.316 µM
[10] = second compound 0.1 µM, first compound 1 µM
[11] = second compound 0.1 µM, first compound 3.16 µM
[12] = second compound 0.1 µM, first compound 10 µM
[13] = second compound 0.316 µM, first compound 0.0316 µM
[14] = second compound 0.316 µM, first compound 0.1 µM
[15] = second compound 0.316 µM, first compound 0.316 µM
[16] = second compound 0.316 µM, first compound 1 µM
[17] = second compound 0.316 µM, first compound 3.16 µM
[18] = second compound 0.316 µM, first compound 10 µM
[19] = second compound 1 µM, first compound 0.0316 µM
[20] = second compound 1 µM, first compound 0.1 µM
[21] = second compound 1 µM, first compound 0.316 µM
[22] = second compound 1 µM, first compound 1 µM
[23] = second compound 1 µM, first compound 3.16 µM
[24] = second compound 1 µM, first compound 10 µM
[25] = second compound 3.16 µM, first compound 0.0316 µM
[26] = second compound 3.16 µM, first compound 0.1 µM
[27] = second compound 3.16 µM, first compound 0.316 µM
[28] = second compound 3.16 µM, first compound 1 µM
[29] = second compound 3.16 µM, first compound 3.16 µM
[30] = second compound 3.16 µM, first compound 10 µM
[31] = second compound 10 µM, first compound 0.0316 µM
[32] = second compound 10 µM, first compound 0.1 µM
[33] = second compound 10 µM, first compound 0.316 µM
[34] = second compound 10 µM, first compound 1 µM
[35] = second compound 10 µM, first compound 3.16 µM
[36] = second compound 10 µM, first compound 10 µM
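Note: spheroids exposed to compounds for seven days.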
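Throughout, for viability, T/C: 100% = DMSO vehicle control viability.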

CCc1cc2c(N3CCc4c(cc(Cn5ccnc5)cc4-c4cn(C)nc4C(F)(F)F)C3=O)cc(C)nc2c(OC)n1 + Cc1cccc(N(C)C(=O)C2C(O)CCN2c2nc(C)cc(C(F)(F)F)c2C#N)c1
IC50 (second compound 0.0316 µM): 7640 nM
IC50 (second compound 0.1 µM): 6710 nM
IC50 (second compound 0.316 µM): 6910 nM
IC50 (second compound 1 µM): 7650 nM
IC50 (second compound 3.16 µM): 6580 nM
IC50 (second compound 10 µM): 5430 nM
viability, T/C [1]: 105%
viability, T/C [2]: 90.4%
viability, T/C [3]: 87%
viability, T/C [4]: 84.9%
viability, T/C [5]: 65.7%
viability, T/C [6]: 44.5%
viability, T/C [7]: 95.9%
viability, T/C [8]: 90.9%
viability, T/C [9]: 96%
viability, T/C [10]: 86.4%
viability, T/C [11]: 68.4%
viability, T/C [12]: 40.3%
viability, T/C [13]: 112%
viability, T/C [14]: 94%
viability, T/C [15]: 106%
viability, T/C [16]: 98.2%
viability, T/C [17]: 67%
viability, T/C [18]: 41.9%
viability, T/C [19]: 93.8%
viability, T/C [20]: 87.3%
viability, T/C [21]: 107%
viability, T/C [22]: 88.5%
viability, T/C [23]: 72.9%
viability, T/C [24]: 43.1%
viability, T/C [25]: 101%
viability, T/C [26]: 100%
viability, T/C [27]: 94.4%
viability, T/C [28]: 81.9%
viability, T/C [29]: 65.3%
viability, T/C [30]: 41.4%
viability, T/C [31]: 97.2%
viability, T/C [32]: 95.7%
viability, T/C [33]: 96.7%
viability, T/C [34]: 71.1%
viability, T/C [35]: 64.9%
viability, T/C [36]: 36.6%

CC(=O)O[C@H]1C(=O)[C@@]2(C)[C@H]([C@H](OC(=O)c3ccccc3)[C@]3(O)C[C@H](OC(=O)[C@H](O)[C@@H](NC(=O)c4ccccc4)c4ccccc4)C(C)=C1C3(C)C)[C@]1(OC(C)=O)CO[C@@H]1C[C@@H]2O + Nc1ccc(C#CCN(C(=O)Cc2ncc(C(F)(F)F)cc2C(F)(F)F)c2ccc(F)cc2)nn1
IC50 (second compound 0.0316 µM): 13.6 nM
IC50 (second compound 0.1 µM): 12.5 nM
IC50 (second compound 0.316 µM): 14.5 nM
IC50 (second compound 1 µM): 10.4 nM
IC50 (second compound 3.16 µM): 10.5 nM
IC50 (second compound 10 µM): < 9.49 nM
viability, T/C (second compound 0.0316 µM, first compound 0.00949 µM): 63.4%
viability, T/C (second compound 0.0316 µM, first compound 0.03 µM): 20.8%
viability, T/C (second compound 0.0316 µM, first compound 0.0949 µM): 12.1%
viability, T/C (second compound 0.0316 µM, first compound 0.3 µM): 12.3%
viability, T/C (second compound 0.0316 µM, first compound 0.949 µM): 12.3%
viability, T/C (second compound 0.0316 µM, first compound 3 µM): 11.4%
viability, T/C (second compound 0.1 µM, first compound 0.00949 µM): 59.2%
viability, T/C (second compound 0.1 µM, first compound 0.03 µM): 22.4%
viability, T/C (second compound 0.1 µM, first compound 0.0949 µM): 12.4%
viability, T/C (second compound 0.1 µM, first compound 0.3 µM): 11.6%
viability, T/C (second compound 0.1 µM, first compound 0.949 µM): 13.2%
viability, T/C (second compound 0.1 µM, first compound 3 µM): 17.6%
viability, T/C (second compound 0.316 µM, first compound 0.00949 µM): 67.8%
viability, T/C (second compound 0.316 µM, first compound 0.03 µM): 19.9%
viability, T/C (second compound 0.316 µM, first compound 0.0949 µM): 11.4%
viability, T/C (second compound 0.316 µM, first compound 0.3 µM): 13.2%
viability, T/C (second compound 0.316 µM, first compound 0.949 µM): 12.4%
viability, T/C (second compound 0.316 µM, first compound 3 µM): 12.9%
viability, T/C (second compound 1 µM, first compound 0.00949 µM): 53.1%
viability, T/C (second compound 1 µM, first compound 0.03 µM): 16%
viability, T/C (second compound 1 µM, first compound 0.0949 µM): 14%
viability, T/C (second compound 1 µM, first compound 0.3 µM): 10.8%
viability, T/C (second compound 1 µM, first compound 0.949 µM): 12.7%
viability, T/C (second compound 1 µM, first compound 3 µM): 13.6%
viability, T/C (second compound 3.16 µM, first compound 0.00949 µM): 53.4%
viability, T/C (second compound 3.16 µM, first compound 0.03 µM): 16.5%
viability, T/C (second compound 3.16 µM, first compound 0.0949 µM): 14.4%
viability, T/C (second compound 3.16 µM, first compound 0.3 µM): 12.5%
viability, T/C (second compound 3.16 µM, first compound 0.949 µM): 12.9%
viability, T/C (second compound 3.16 µM, first compound 3 µM): 14%
viability, T/C (second compound 10 µM, first compound 0.00949 µM): 45.5%
viability, T/C (second compound 10 µM, first compound 0.03 µM): 16.9%
viability, T/C (second compound 10 µM, first compound 0.0949 µM): 15.8%
viability, T/C (second compound 10 µM, first compound 0.3 µM): 13.3%
viability, T/C (second compound 10 µM, first compound 0.949 µM): 14.4%
viability, T/C (second compound 10 µM, first compound 3 µM): 17.6%

Nc1ccn(C2OC(CO)C(O)C2(F)F)c(=O)n1 (stereo unspecified) + Nc1ccc(C#CCN(C(=O)Cc2ncc(C(F)(F)F)cc2C(F)(F)F)c2ccc(F)cc2)nn1
IC50 (second compound 0.0316 µM): < 31.6 nM
IC50 (second compound 0.1 µM): < 31.6 nM
IC50 (second compound 0.316 µM): < 31.6 nM
IC50 (second compound 1 µM): < 31.6 nM
IC50 (second compound 3.16 µM): < 31.6 nM
IC50 (second compound 10 µM): < 31.6 nM
viability, T/C [1]: 27.5%
viability, T/C [2]: 18%
viability, T/C [3]: 17.3%
viability, T/C [4]: 17.3%
viability, T/C [5]: 17.6%
viability, T/C [6]: 12.2%
viability, T/C [7]: 33.5%
viability, T/C [8]: 18%
viability, T/C [9]: 18.8%
viability, T/C [10]: 15.2%
viability, T/C [11]: 15.3%
viability, T/C [12]: 16.1%
viability, T/C [13]: 32.9%
viability, T/C [14]: 17.4%
viability, T/C [15]: 15.9%
viability, T/C [16]: 16.3%
viability, T/C [17]: 16.4%
viability, T/C [18]: 15.9%
viability, T/C [19]: 30.1%
viability, T/C [20]: 17.6%
viability, T/C [21]: 18%
viability, T/C [22]: 16.6%
viability, T/C [23]: 19%
viability, T/C [24]: 14.2%
viability, T/C [25]: 27.4%
viability, T/C [26]: 19.8%
viability, T/C [27]: 15.3%
viability, T/C [28]: 17.1%
viability, T/C [29]: 16.6%
viability, T/C [30]: 15.4%
viability, T/C [31]: 40.4%
viability, T/C [32]: 23.2%
viability, T/C [33]: 20.3%
viability, T/C [34]: 19.1%
viability, T/C [35]: 19.4%
viability, T/C [36]: 14.9%

— PubChem BioAssay AID1963851 (Molecular Pharmacology Branch, DTP, NCI, 2024)
